Converted amounts (≈) assume the structure as drawn.
How the values were obtained:
[1] = tested on: formation of Advanced Glycation Endproducts (AGEs), BSA-glucose; assay: BSA-glucose antiglycation assay; type: biochemical, bovine; conditions: for BSA-Glucose % Inhibition: at 0.25 mM (table footnote a)
Protocol: The BSA (bovine serum albumin) -glucose and BSA-MGO (methyl glyoxal) antiglycation assays were carried out as reported before. The test protocol is attached as Supplementary Materials. […]
1. Antiglycation Assay (BSA-Glucose Assay)
The antiglycation assay was performed according to the method developed by Matsuura et al.
(2002) with minor modifications. The reaction mixture (300 μL) contained bovine serum albumin
(BSA) (10 mg/mL, 135 μL), D-glucose (500 mM, 135 μL) dissolved in phosphate buffer (50 mM, pH
7.4, containing sodium azide (0.02%, added to prevent bacterial growth) and test compounds (30 μL),
at different final concentrations (1.5–0.023 mM for isolated constituents or 100–1.17 μg/mL for
extracts) dissolved in 100 % DMSO. The mixtures were incubated at 60 °C for 48 h. After incubation,
the reaction mixture was allowed to cool down at room temperature. Then 100 μL reaction mixture
was transferred to a new plastic tube (1.5 mL) and the reaction was stopped by adding 10 μL of 100%
(w/v) trichloroacetic acid (TCA) and to precipitate proteins. The TCA-added mixture was kept at 4 °C
for 10 min, followed by centrifugation (14,000 rpm, 4 °C, 4 min). The supernatant containing unreacted
D-glucose, test sample and interfering substances was discarded, whereas the precipitate containing
AGEs-BSA was redissolved with 0.8 mL alkaline PBS (137 mM NaCl, 8.1 mM Na2HPO4, 2.68 mM KCl,
1.47 mM KH2PO4, pH 10). The change in fluorescence intensity (excitation 335 nm, emission 385 nm;
excitation 370, emission 440) due to formation of AGEs was monitored by spectrofluorometry
(Tecan™ Infinite M200, Giessen, The Netherlands). In order to eliminate interference by autofluorescenc e
of the test compounds, a parallel incubation of test substance with BSA at 60 °C without D-glucose
was performed for all samples. Quercetin (0.5–0.0312 mM final concentration) and aminoguanidine
(3–0.046 mM final concentration) were used as reference compounds.
2. The AGEs Inhibition was Calculated as
% inhibition = {1 − (FBSA + glucose + test substance − FBSA + test substance)/(FBSA
+ glucose − FBSA)} × 100 (1)
where F is the fluorescence intensity.
calculated using Sigma plot® 13.0. […]

[2] = tested on: formation of Advanced Glycation Endproducts (AGEs), BSA-MGO (methyl glyoxal); assay: BSA-MGO antiglycation assay; type: biochemical, bovine
Protocol: The BSA (bovine serum albumin) -glucose and BSA-MGO (methyl glyoxal) antiglycation assays were carried out as reported before. The test protocol is attached as Supplementary Materials.
Supplementary Materials: Antiprotozoal and
Antiglycation Activities of Sesquiterpene Coumarins
from Ferula narthex Exudate […]
2. The AGEs Inhibition was Calculated as […]
3. Protein-Glyoxal Interaction (BSA-MGO Assay)
The antiglycation assay using methylgloxyl (MGO) was performed according to the method
developed by Peng et al. (2007) with slight modifications. Briefly, methylglyoxal (135 μL, 5.75 mM)
was incubated with BSA (135 μL, 10 mg/mL) dissolved in phosphate buffer (50 mM, pH 7.4,
containing sodium azide (0.02%), added to prevent bacterial growth) and test compounds (30 μL) at
different final concentrations (1.5–0.023 mM) in 100% DMSO. The reaction mixture was incubated at
37 °C for one week. Control solutions only contained methylglyoxal (135 μL, 5.75 mM) BSA (135 μL,
1 0 mg/mL) and DMSO (100%) only. The blank samples of similar composition were also prepared
simultaneously and kept at 4 °C for one week. The change in fluorescence intensity (excitation
335 nm, emission 385 nm; excitation 370, emission 440) due to formation of AGEs was monitored by
spectrofluorometry (Tecan® Infinite M200, Giessen, The Netherlands). Aminoguanidine (3–0.046 mM
final concentration) was used as reference compound. The AGEs inhibition was calculated as
% AGEs inhibition = [1 − (S − Sb)/(C − Cb)] × 100 (2)
where S and C were fluorescence of test samples (in DMSO) and control (test mixtures containing
only DMSO) incubated at 37 °C, and where Sb and Cb were fluorescence for samples incubated at 4 °C. […]

Escherichia coli = assay: Antibacterial screening, E. coli; type: cell-based
Protocol: (§1) Fractions and isolated compounds were evaluated for antimicrobial activity in an integrated screening panel as reported before.

[3] = tested on: Leishmania promastigote stage; design: method as in doi:10.1016/j.phytol.2014.04.009; conditions: cited from earlier work
[4] = tested on: MRC-5: Human fetal lung fibroblasts; assay: Cytotoxicity on MRC-5 cells; type: cell-based; conditions: MRC5
Protocol: as §1

Plasmodium falciparum K1 = assay: Antiplasmodial activity; type: cell-based; conditions: K1, read-out: IC50 Pf-K1
Protocol: as §1

Trypanosoma brucei = assay: Antitrypanosomal activity, T. brucei; type: cell-based; conditions: read-out: IC50 T. bruc.
Protocol: as §1

Trypanosoma cruzi = assay: Antitrypanosomal activity, T. cruzi; type: cell-based; conditions: read-out: IC50 T. cruz.
Protocol: as §1

Leishmania infantum = assay: Antileishmanial activity, L. infantum; type: cell-based
Protocol: as §1

[5] = tested on: Peritoneal Murine Macrophages (PMM); assay: Cytotoxicity on peritoneal murine macrophages; type: cell-based; conditions: Mus musculus, Macrophage
Protocol: as §1

[6] = tested on: formation of Advanced Glycation Endproducts (AGEs), BSA-MGO (methyl glyoxal); assay: BSA-MGO antiglycation assay; type: biochemical, bovine; conditions: at 2 mM
Microsporum canis = assay: Antifungal screening, M. canis; type: cell-based
Protocol: as §1

Aspergillus fumigatus = assay: Antifungal screening, A. fumigatus; type: cell-based
Protocol: as §1

Staphylococcus aureus = assay: Antibacterial screening, S. aureus; type: cell-based
Protocol: as §1

Q: Which results are given for `O=c1c(O)c(-c2ccc(O)c(O)c2)oc2cc(O)cc(O)c12` [Quercetin, reference compound]?
A: IC50 [1]: 0.23 mM; IC50 [2]: 0.35 mM

Q: For `O=C(N[C@H](CO)[C@H](O)c1ccc([N+](=O)[O-])cc1)C(Cl)Cl` [chloramphenicol], which IC50 (Escherichia coli) is on record?
A: 4.9 µM

Q: With `CC1=CC[C@@H]2C(C)(C)[C@@H](O)CC[C@@]2(C)[C@@H]1COc1ccc2ccc(=O)oc2c1` [conferol] as the compound, how does the “IC value, antileishmanial activity” value [3] read?
A: 11.51 µg/mL

Q: What does the source list for `C/C(=C\COc1ccc2ccc(=O)oc2c1)CC/C=C(\C)CC[C@@H](O)C(C)(C)O` [Compound 5, 10′R-Karatavacinol]?
A: IC50 [4]: 20.4 µM; IC50 (Plasmodium falciparum K1): 16 µM; IC50 (Trypanosoma brucei): 32.4 µM; IC50 (Trypanosoma cruzi): 9.4 µM; IC50 (Leishmania infantum): 32.4 µM; IC50 [5]: 32 µM; BSA-Glucose IC50 [1]: did not reach the 50% inhibition level; BSA-Glucose % Inhibition [1]: 32%; IC50 [2]: 1.83 mM

Q: Which IC50 (Trypanosoma brucei) does the source give for `Cc1ccc(C(=O)Nc2ccc(S(=O)(=O)O)c3cc(S(=O)(=O)O)cc(S(=O)(=O)O)c23)cc1NC(=O)c1cccc(NC(=O)Nc2cccc(C(=O)Nc3cc(C(=O)Nc4ccc(S(=O)(=O)O)c5cc(S(=O)(=O)O)cc(S(=O)(=O)O)c45)ccc3C)c2)c1` [suramine, reference compound] here?
A: 0.03 µM

Q: For `CC1=CC(=O)[C@@H]2C(C)(C)[C@H](O)CC[C@@]2(C)[C@@H]1COc1ccc2ccc(=O)oc2c1` [Compound 2, Ligupersin A], which IC50 [1] is on record?
A: 0.41 mM

Q: And the “BSA-MGO IC50” value [2]?
A: the 50% inhibition level was not reached

Q: What about the “BSA-MGO % Inhibition” value [6] of the same compound?
A: 40%

Q: Which IC50 (Trypanosoma cruzi) does the source give for `O=C(Cn1ccnc1[N+](=O)[O-])NCc1ccccc1` [benznidazole, reference compound] here?
A: 3.3 µM

Q: What does the source list for `CC(=O)OC(CC=C(C)C)/C(C)=C/C(O)C/C(C)=C/COc1ccc2ccc(=O)oc2c1` (centres unmarked) [Compound 3, 8′-O-Acetyl-asacoumarin A]?
A: IC50 [4]: 31.7 µM; IC50 (Plasmodium falciparum K1): 7.4 µM; IC50 (Trypanosoma brucei): 32.4 µM; IC50 (Trypanosoma cruzi): 19.1 µM; IC50 (Leishmania infantum): 12.7 µM; IC50 [5]: 32 µM; BSA-Glucose IC50 [1]: did not reach the 50% inhibition level; BSA-Glucose % Inhibition [1]: 44%; IC50 [2]: 1.03 mM

Q: Which IC50 [4] does the source give for `CC1=CC[C@@H]2C(C)(C)[C@H](O)CC[C@@]2(C)[C@@H]1COc1ccc2ccc(=O)oc2c1` [Compound 1, Feselol] here?
A: 8 µM

Q: What about the IC50 (Plasmodium falciparum K1) of the same compound?
A: 22.4 µM

Q: And the IC50 (Trypanosoma brucei)?
A: 8.1 µM

Q: What about the IC50 (Trypanosoma cruzi) of the same compound?
A: 8.6 µM

Q: What about the IC50 (Leishmania infantum) of the same compound?
A: 6.8 µM

Q: And the IC50 [5]?
A: 8 µM

Q: And the “BSA-Glucose IC50” value [1]?
A: did not reach the 50% inhibition level

Q: What about the “BSA-Glucose % Inhibition” value [1] of the same compound?
A: 47%

Q: What about the IC50 [2] of the same compound?
A: 1.71 mM

Q: Which results are given for `CN(C/C=C/C#CC(C)(C)C)Cc1cccc2ccccc12` [terbinafine]?
A: IC50 (Microsporum canis): 0.11 µg/mL (≈ 0.377 µM); IC50 (Aspergillus fumigatus): 800 nM

Q: With `N=C(N)NN` [Aminoguanidine, reference compound] as the compound, how does the IC50 [1] read?
A: 1.75 mM

Q: And the IC50 [2]?
A: 0.15 mM

Q: For `CC(=O)O[C@H](CC/C(C)=C/CC/C(C)=C/COc1ccc2ccc(=O)oc2c1)C(C)(C)O` [Compound 6, 10′R-Acetyl-karatavacinol], which “BSA-Glucose IC50” value [1] is on record?
A: did not reach the 50% inhibition level

Q: What about the “BSA-Glucose % Inhibition” value [1] of the same compound?
A: 36%

Q: What about the “BSA-MGO IC50” value [2] of the same compound?
A: the 50% inhibition level was not reached

Q: And the “BSA-MGO % Inhibition” value [6]?
A: 20%

Q: For `CC[C@H]1OC(=O)[C@H](C)[C@@H](O[C@H]2C[C@@](C)(OC)[C@@H](O)[C@H](C)O2)[C@H](C)[C@@H](O[C@@H]2O[C@H](C)C[C@H](N(C)C)[C@H]2O)[C@](C)(O)C[C@@H](C)C(=O)[C@H](C)[C@@H](O)[C@]1(C)O` [erythromycin], which IC50 (Staphylococcus aureus) is on record?
A: 11.2 µg/mL (≈ 15.3 µM)

Q: Which IC50 (Escherichia coli) does the source give for `COc1cc(Cc2cnc(N)nc2N)cc(OC)c1OC` [trimethoprim] here?
A: 0.25 µg/mL

Q: Which results are given for `CC(C)=CCC(O)/C(C)=C/C(O)C/C(C)=C/COc1ccc2ccc(=O)oc2c1` (centres unmarked) [Compound 4, Asacoumarin A]?
A: IC50 [4]: 11.7 µM; IC50 (Plasmodium falciparum K1): 1.3 µM; IC50 (Trypanosoma brucei): 32.6 µM; IC50 (Trypanosoma cruzi): 10.5 µM; IC50 (Leishmania infantum): 12.7 µM; IC50 [5]: 32 µM; IC50 [1]: 1.83 mM; BSA-MGO IC50 [2]: the 50% inhibition level was not reached; BSA-MGO % Inhibition [6]: 35%

Q: With `CCN(CC)CCCC(C)Nc1ccnc2cc(Cl)ccc12` (centres unmarked) [chloroquine, reference compound] as the compound, how does the IC50 (Plasmodium falciparum K1) read?
A: 0.16 µM
